In publication PMC9475448, “What a difference a methylene makes: replacing Glu with Asp or Aad in the Lys-urea-Glu pharmacophore of PSMA-targeting radioligands to reduce kidney and salivary gland uptake” (Theranostics, 2022):
“Also recorded” adds a separate entry of the source. Like-named read-outs stand apart in the source and are kept apart here.

Key:
[1] = test system: LNCaP tumor and major mouse organs/tissues; assay: Radiation dosimetry calculation with OLINDA software from biodistribution data; details: 25-g mouse
Excerpt: The biodistribution data (available in the Supplemental Table s 5- 6) were used to determine the kinetics input values required by OLINDA. First, each of the values was decayed to its corresponding time point (the values on the table are shown at injection time). Then the different time-points of the uptake data (%IA/g) for each organ were fitted to both mono- exponential ( ) and bi-exponential ( ) functions using in-house software developed in Python. The best fit was selected based on maximizing the coefficient of determination (R2) of the fit and minimizing the residuals. The areas under the curves were analytically calculated based on the parameters obtained from the best fit of each organ and this provided the kinetic input values required by OLINDA.
In the mouse case, the adrenals, blood, fat, and muscle are not modeled in the phantom. These organs were grouped together and included in what OLINDA calls the remainder of the body .
Lastly, the numbers of decays in the tumors were also calculated based on the biodistribution data of the mice and the values were inputted into the sphere model available in OLINDA.

LNCaP tumor-bearing mice [2] = assay: Longitudinal SPECT/CT imaging of 177Lu-labeled ligands; type: in vivo
Procedure: SPECT/CT imaging experiments were conducted using the MILabs (Utrecht, The Netherlands) U-SPECT-II/CT scanner. Each tumor-bearing mouse (n = 1-2 was injected with ∼37 MBq (50-250 pmol) of ^177Lu-labeled compound through a lateral caudal tail vein. The mice were imaged at 1, 4, 24, 72, and 120 h after injection. At each time point, a 5-min CT scan was conducted first for anatomical reference followed by 2 × 30-min static emission scans acquired in list mode.

LNCaP tumor-bearing mice [3] = details: mouse, in vivo
LNCaP tumor-bearing mice [4] = assay: Radioligand therapy study in LNCaP tumor-bearing NRG mice
LNCaP tumor-bearing mice [5] = assay: Ex vivo biodistribution of 177Lu-labeled ligands in LNCaP tumor-bearing NRG mice
[6] = 1 h post-injection, listed as [177Lu]Lu-HTK03149

## O=C([O-])CN1CCN(CC(=O)[O-])CCN(CC(=O)NCC2CCC(C(=O)NC(Cc3c4ccccc4cc4ccccc34)C(=O)NCCCCC(NC(=O)NC(CCCC(=O)O)C(=O)O)C(=O)O)CC2)CCN(CC(=O)[O-])CC1.[177Lu+3] (centres unmarked) [[^177Lu]Lu-HTK03149]
[1]; source organ Brain
  Kinetics value: 2.23E-03 MBq-h/MBq
[1]; source organ Cortical bone
  Kinetics value: 7.60E-02 MBq-h/MBq
[1]; source organ Heart contents
  Kinetics value: 1.94E-02 MBq-h/MBq
[1]; source organ Kidneys
  Kinetics value: 2.41E-01 MBq-h/MBq
[1]; source organ Large intestine
  Kinetics value: 9.24E-02 MBq-h/MBq
[1]; source organ Liver
  Kinetics value: 3.91E-01 MBq-h/MBq
[1]; source organ Lungs
  Kinetics value: 1.72E-02 MBq-h/MBq
[1]; source organ Pancreas
  Kinetics value: 1.79E-02 MBq-h/MBq
[1]; source organ Remainder of the body
  Kinetics value: 5.31E-01 MBq-h/MBq
[1]; source organ Small intestine
  Kinetics value: 2.76E-01 MBq-h/MBq
[1]; source organ Spleen
  Kinetics value: 2.30E-02 MBq-h/MBq
[1]; source organ Stomach
  Kinetics value: 8.07E-03 MBq-h/MBq
[1]; source organ Testes
  Kinetics value: 1.29E-02 MBq-h/MBq
[1]; source organ Thyroid
  Kinetics value: 2.03E-03 MBq-h/MBq
[1]; source organ Urinary bladder contents
  Kinetics value: 8.14E-01 MBq-h/MBq
LNCaP tumor-bearing mice [2]; mouse, in vivo
  Excretion pathway (SPECT imaging): excreted mainly through the renal pathway; also recorded: excreted mainly via the renal pathway
LNCaP tumor-bearing mice [2]; ~37 MBq injected
  Tumor size change in SPECT/CT images: tumors shrank from Day 1 to Day 5
LNCaP tumor-bearing mice [3]
  Spleen uptake: 0.142 ± 0.062 %IA/g
LNCaP tumor-bearing mice [4]; 9.3 MBq injected
  Median survival: 52 days
LNCaP tumor-bearing mice [4]; 18.5 MBq injected
  Median survival: 63 days
LNCaP tumor-bearing mice [4]; 37 MBq injected
  Median survival: 88 days
LNCaP tumor-bearing mice [4]; 74 MBq injected
  Median survival: 142 days
LNCaP tumor-bearing mice [4]; 148 MBq injected
  Median survival: >180 days
LNCaP tumor-bearing mice [4]; injected radioactivity as high as 148 MBq
  Weight loss of treated mice: did not observe any weight loss
LNCaP tumor-bearing mice [5]; 1 h post-injection
  Adrenal glands uptake: 0.352 ± 0.071 %IA/g
  Blood uptake: 0.876 ± 0.073 %IA/g
  Blood:Salivary gland uptake ratio: 3.98 ± 0.65
  Bone uptake: 0.072 ± 0.020 %IA/g
  Brain uptake: 0.022 ± 0.002 %IA/g
  Fat uptake: 0.136 ± 0.049 %IA/g
  Heart uptake: 0.281 ± 0.036 %IA/g
  Intestines uptake: 0.267 ± 0.063 %IA/g
  Kidneys uptake: 7.67±1.35 %IA/g
  Lacrimal glands uptake: 0.022 ± 0.006 %IA/g
  Liver uptake: 0.264 ± 0.031 %IA/g
  Lungs uptake: 0.721 ± 0.056 %IA/g
  Muscle uptake: 0.182 ± 0.138 %IA/g
  Pancreas uptake: 0.165 ± 0.028 %IA/g
  Salivary glands uptake: 0.23±0.06 %IA/g
  Spleen uptake: 0.260 ± 0.045 %IA/g
  Stomach uptake: 0.096 ± 0.020 %IA/g
  Testes uptake: 0.255 ± 0.019 %IA/g
  Thyroid uptake: 0.269 ± 0.021 %IA/g
  Tumor uptake: 13.96 ± 2.155 %IA/g
  Tumor:Blood uptake ratio: 16.0 ± 2.44
  Tumor:Muscle uptake ratio: 101 ± 48.3
  Tumor:Salivary gland uptake ratio: 63.4 ± 13.6
LNCaP tumor-bearing mice [5]; [6]
  Kidneys uptake: 7.672 ± 1.346 %IA/g
  Salivary glands uptake: 0.227 ± 0.062 %IA/g
LNCaP tumor-bearing mice [5]; 4 h post-injection
  Adrenal glands uptake: 0.085 ± 0.007 %IA/g
  Blood uptake: 0.167 ± 0.033 %IA/g
  Blood:Salivary gland uptake ratio: 3.32 ± 0.59
  Bone uptake: 0.016 ± 0.010 %IA/g
  Brain uptake: 0.010 ± 0.001 %IA/g
  Fat uptake: 0.021 ± 0.003 %IA/g
  Heart uptake: 0.070 ± 0.013 %IA/g
  Intestines uptake: 0.185 ± 0.067 %IA/g
  Kidneys uptake: 1.67±0.38 %IA/g
  Lacrimal glands uptake: 0.029 ± 0.014 %IA/g
  Liver uptake: 0.108 ± 0.010 %IA/g
  Lungs uptake: 0.169 ± 0.012 %IA/g
  Muscle uptake: 0.021 ± 0.005 %IA/g
  Pancreas uptake: 0.034 ± 0.004 %IA/g
  Salivary glands uptake: 0.05±0.01 %IA/g
  Spleen uptake: 0.089 ± 0.020 %IA/g
  Stomach uptake: 0.049 ± 0.021 %IA/g
  Testes uptake: 0.056 ± 0.005 %IA/g
  Thyroid uptake: 0.066 ± 0.008 %IA/g
  Tumor uptake: 20.9±2.99 %IA/g
  Tumor:Muscle uptake ratio: 1028 ± 227
  Tumor:Salivary gland uptake ratio: 415 ± 60.5
